Experimental data reported in US20060049177A1, “Induction heating cooker” (LG Electronics Inc., priority 2004, published 2006).
Like-named read-outs stand apart in the source and are kept apart here.

What was measured:
[1] = tested on: HIV-1; assay: in vitro anti-HIV assay: inhibition of HIV-induced cytopathic effect in MT-4 cells (MTT); type: cell-based; conditions: for IC50: HIV-infected MT-4 cells, dose achieving 50% protection against cytopathic effect, MTT, OD 540 nm, mean value, read-out: IC50; for SI: selectivity index = ratio of CC50 to IC50
Protocol: (§1) A rapid, sensitive and automated assay procedure was used for the in vitro evaluation of anti-HIV agents. An […] T4-cell line, MT-4, which was previously shown (Koyanagi et al., Int. J. Cancer, 36, 445-451, 1985) to be highly susceptible to and permissive for HIV infection, served as the target cell line. Inhibition of the HIV-induced cytopathic effect was used as the end point. The viability of both HIV- and mock-infected cells was assessed spectrophotometrically via the in situ reduction of 3-(4,5-dimethylthiazol-2-yl)-2,5-diphenyltetrazolium bromide (MTT). The 50% […], cytotoxic concentration (CC50 in μM) was defined as the concentration of compound that reduced the absorbance of the mock-infected control sample by 50%. The percent protection achieved by the compound in HIV-infected cells was calculated by the following formula: [formula]
(§2) whereby (ODT)HIV is the optical density measured with a given concentration of the test compound in HIV-infected cells; (ODC)HIV is the optical density measured for the control untreated HIV-infected cells; (ODC)MOCK is the optical density measured for the control untreated mock-infected cells; all optical density values were determined at 540 nm. The dose achieving 50% protection according to the above formula was defined as the 50% inhibitory concentration (IC50 in μM). The ratio of CC50 to IC50 was defined as the selectivity index (SI).

[2] = cytotoxicity in mock-infected MT-4 cells (MTT); conditions: human, mock-infected MT-4 cells
Protocol: as §1, §2

[3] = tested on: MT-4 cells; assay: cytotoxicity in mock-infected MT-4 cells (MTT)
Protocol: as §1, §2

[4] = Human immunodeficiency virus 1, MT4

Row | Structure (SMILES) | IC50 [1, 4] | SI [1] | melting point | CC50 [2] | IC50 [1] | CC50 [3]
1 | CC(C)NC(=O)Nc1nc(Cc2c(Cl)cccc2Cl)nc(Nc2ccc(C#N)cc2)n1 [Compound 6, N-[4-[(4-cyano-phenyl)amino]-6-[(2,6-dichlorophenyl)methyl]-1,3,5-triazin-2-yl]-N′-(1-methylethyl)-urea] | 380 nM | >263 | 267 to 268 °C | – | – | –
2 | NC(=O)c1ccc(Nc2nc(N)nc(Cc3c(Cl)ccc4[nH]ccc34)n2)cc1 [Compound 9, 4-[[4-amino-6-[(5-chloro-1H-indol-4-yl)methyl]-1,3,5-triazin-2-yl]amino]benzamide] | 66 nM | 830 | 204 to 205 °C | – | – | –
3 | CNc1nc(Cc2c(Cl)cccc2Cl)nc(Nc2ccc(C#N)cc2)n1 [Compound 7, 4-[[4-[(2,6-dichlorophenyl)methyl]-6-(methyl-amino)-1,3,5-triazin-2-yl]amino]benzonitrile] | 10 nM | >14285 | 229 to 230 °C | > 100000 nM | – | –
4 | CCOC(=O)CC[C@H](Nc1nc(Cc2c(Cl)cccc2Cl)nc(Nc2ccc(C#N)cc2)n1)C(=O)OCC [Compound 17] | – | >4 | – | – | 4300 nM | > 20000 nM
5 | CN(C)CCCNc1nc(Cc2c(Cl)cccc2Cl)nc(Nc2ccc(C#N)cc2)n1 [Compound 31] | – | 506 | – | – | 19 nM | 9600 nM
6 | CCO.Cl.N#Cc1ccc(Nc2nc(N)nc(C(CC3CC3)c3c(Cl)cccc3Cl)n2)cc1 (stereo not shown) [Compound 61] | – | 7 | – | – | 6900 nM | 53400 nM
7 | N#Cc1ccc(Nc2nc(Cc3c(Cl)cccc3Cl)nc(NCC(O)CO)n2)cc1 (stereo not shown) [Compound 26, (O)-4-[[4-[(2,6-dichlorophenyl)methyl]-6-[(2,3-dihydroxypropyl)amino]-1,3,5-triazin-2-yl]amino]benzonitrile] | – | 883 | – | – | 68 nM | 59700 nM
8 | Cc1cc(C)c(C)c(Cc2nc(N)nc(Nc3ccc(C#N)cc3)n2)c1C [Compound 54] | – | 9515 | – | – | 5 nM | 43800 nM
9 | N#Cc1ccc(Nc2nc(N)nc(Cc3c(Cl)ccc(Cl)c3Cl)n2)cc1 [Compound 44] | – | >35087 | – | – | 3 nM | > 100000 nM
10 | N#Cc1ccc(Nc2nc(Cc3c(Cl)cccc3Cl)nc(NCCc3cccs3)n2)cc1 [Compound 35] | – | 75 | – | – | 700 nM | 53000 nM
11 | COc1ccc(OC)c(Cc2nc(N)nc(Nc3ccc(C#N)cc3)n2)c1 [Compound 46] | – | >2506 | – | – | 40 nM | > 100000 nM
12 | CN(C)CCNc1nc(Cc2c(Cl)cccc2Cl)nc(Nc2ccc(C#N)cc2)n1 [Compound 29] | – | 1741 | – | – | 5 nM | 8700 nM
